Data from publication PMC4113800 (Marine Drugs, 2014).

Tests used:
[1] = MTT cytotoxicity assay, parental SW620 cells; format: cell-based; conditions: human
Experimental: (§1) The MTT assay was modified based on that previously described, using adherent cell lines SW620 and NCI-H460, and their P-gp over-expressing daughter cell line SW620 Ad300 and BCRP over-expressing daughter cell line NCI-H460/MX20, respectively. Briefly, cells were harvested with trypsin and added into 96-well microtitre assay plates at 2000 cells/well, followed by 18 h incubation at 37 °C with 5% CO2. […] Control wells were treated with 5% aqueous DMSO. […] 68 h later, 20 μL MTT (4 mg/mL in PBS) was dispensed into each well (final concentration 0.40 mg/mL), and plates were incubated for a further 4 h at 37 °C with 5% CO2. Finally medium was removed and precipitated formazan crystals were dissolved in 100% DMSO. The absorbance of each well was measured at 580 nm with a PowerWave XS Microplate Reader from Bio-Tek Instruments Inc. (Vinooski, VT, USA).
(§2) All experiments were performed in duplicate.

[2] = MTT cytotoxicity assay, P-gp over-expressing SW620 Ad300 cells; format: cell-based; conditions: human
Experimental: as §1, §2

BCRP [3] = target: T1, BCRP (Homo sapiens, UniProt Q9UNQ0); test: cell-based; conditions: for FAR (fluorescence arbitrary ratio), mitoxantrone fluorescence / % FTC (inhibition of mitoxantrone efflux normalized to 10 μM FTC): NCI-H460/MX20
T1 sequence (Q9UNQ0 1-655): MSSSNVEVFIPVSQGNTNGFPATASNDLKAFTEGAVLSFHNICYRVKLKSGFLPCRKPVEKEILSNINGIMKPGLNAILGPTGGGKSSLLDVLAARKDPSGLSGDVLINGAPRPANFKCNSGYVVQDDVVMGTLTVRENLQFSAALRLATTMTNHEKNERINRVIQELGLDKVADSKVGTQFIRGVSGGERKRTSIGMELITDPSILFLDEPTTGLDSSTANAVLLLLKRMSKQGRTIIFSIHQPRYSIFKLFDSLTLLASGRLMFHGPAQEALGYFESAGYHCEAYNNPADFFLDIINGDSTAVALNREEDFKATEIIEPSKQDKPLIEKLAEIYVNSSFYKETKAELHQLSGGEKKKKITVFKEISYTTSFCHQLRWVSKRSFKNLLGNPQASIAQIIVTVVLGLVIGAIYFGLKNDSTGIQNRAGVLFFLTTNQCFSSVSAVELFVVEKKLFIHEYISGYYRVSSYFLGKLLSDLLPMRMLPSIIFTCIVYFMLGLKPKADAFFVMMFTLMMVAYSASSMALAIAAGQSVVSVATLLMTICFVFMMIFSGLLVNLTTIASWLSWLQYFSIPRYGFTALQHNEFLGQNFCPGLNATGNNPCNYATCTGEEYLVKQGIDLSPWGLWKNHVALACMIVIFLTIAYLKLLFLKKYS
Experimental: (§3) Flow cytometry based assays were used to measure the ability of natural or synthetic compounds to inhibit P-gp, BCRP or MRP1 mediated accumulation and/or efflux of fluorescent reagents. […] For the calcein AM accumulation assays, cells were directly analyzed by flow cytometry.
(§4) Intracellular fluorescence intensity was measured on a BD FACSCanto™ II flow cytometer (Becton Dickinson, San Jose, CA, USA) and data were analyzed through FlowJo (Tree Star, Inc., Ashland, OR, USA). […] Mitoxantrone fluorescence was detected with a 638 nm […] laser and a 660/20 nm band-pass filter. At least 10,000 events were collected for all of the flow cytometry experiment. By increasing threshold value on forward scatter versus side scatter, debris was eliminated. Dead cells were excluded based on propidium iodide staining. Data are means ± SEM of at least three independent experiments performed in duplicate.

P-gp = target: T2, P-gp (Homo sapiens, UniProt P08183); format: cell-based; conditions: compound or verapamil 20 μM vs PBS; calcein AM […]; SW620 Ad300; further: calcein AM 0.25 µM
T2 construct: The drug-resistant P-gp over-expressing daughter cell line SW620 Ad300 was established by stepwise selection; endogenous in cells; host or cells: SW620 Ad300 (human colon cancer, doxorubicin-selected)
Experimental: as §3, §4

NCI-H460 cells = test: [3H]-mitoxantrone accumulation and efflux in parental NCI-H460 cells; format: cell-based, human; conditions: 11 at 10 or 30 μM, FTC 5.0 μM
From the text: […]. […] […]

SW620 Ad300 cells = test: Reversal of P-gp mediated doxorubicin resistance (MTT assay); format: cell-based, human
Experimental: as §1, §2

BCRP [4] = target: T1, BCRP; conditions: FTC 5.0 μM; [3H]-mitoxantrone 0.10 μM; NCI-H460/MX20
Experimental: In the efflux study cells were incubated with 0.1 μM [^3H]-mitoxantrone as the same in the accumulation study.

T2 sequence (P08183 whole entry): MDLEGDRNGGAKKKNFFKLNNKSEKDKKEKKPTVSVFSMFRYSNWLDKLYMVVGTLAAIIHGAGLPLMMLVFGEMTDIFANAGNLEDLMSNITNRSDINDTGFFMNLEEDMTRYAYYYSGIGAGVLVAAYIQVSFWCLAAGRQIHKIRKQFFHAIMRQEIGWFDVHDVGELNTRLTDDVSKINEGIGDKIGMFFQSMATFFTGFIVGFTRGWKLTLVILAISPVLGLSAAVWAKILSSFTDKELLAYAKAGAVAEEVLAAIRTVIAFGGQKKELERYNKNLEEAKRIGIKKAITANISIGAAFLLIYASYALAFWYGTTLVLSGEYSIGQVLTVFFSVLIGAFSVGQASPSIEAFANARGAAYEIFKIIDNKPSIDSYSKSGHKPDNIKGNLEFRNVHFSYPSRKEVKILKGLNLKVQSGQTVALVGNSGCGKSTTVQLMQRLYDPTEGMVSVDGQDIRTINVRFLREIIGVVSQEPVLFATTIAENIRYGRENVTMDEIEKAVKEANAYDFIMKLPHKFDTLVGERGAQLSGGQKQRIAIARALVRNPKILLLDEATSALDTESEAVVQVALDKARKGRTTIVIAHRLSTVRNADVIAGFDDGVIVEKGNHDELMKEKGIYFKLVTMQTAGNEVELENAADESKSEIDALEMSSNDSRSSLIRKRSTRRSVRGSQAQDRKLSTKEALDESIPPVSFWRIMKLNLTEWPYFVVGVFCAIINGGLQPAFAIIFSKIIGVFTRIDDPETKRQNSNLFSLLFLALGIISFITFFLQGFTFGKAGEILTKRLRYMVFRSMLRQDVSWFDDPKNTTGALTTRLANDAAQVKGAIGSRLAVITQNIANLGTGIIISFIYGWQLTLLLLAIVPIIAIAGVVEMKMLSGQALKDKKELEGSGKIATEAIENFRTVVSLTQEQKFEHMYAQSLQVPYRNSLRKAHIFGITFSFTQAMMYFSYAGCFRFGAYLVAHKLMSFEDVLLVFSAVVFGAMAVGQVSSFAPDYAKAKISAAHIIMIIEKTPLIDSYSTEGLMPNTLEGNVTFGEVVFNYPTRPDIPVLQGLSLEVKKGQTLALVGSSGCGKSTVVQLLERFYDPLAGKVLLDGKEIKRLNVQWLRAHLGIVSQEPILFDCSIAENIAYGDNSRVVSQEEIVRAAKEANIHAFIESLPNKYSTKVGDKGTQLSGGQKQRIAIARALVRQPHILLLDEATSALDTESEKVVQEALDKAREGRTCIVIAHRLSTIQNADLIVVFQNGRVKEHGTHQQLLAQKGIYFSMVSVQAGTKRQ

Structure (SMILES)	IC50 at 68 h [1]	IC50 at 68 h [2]	FAR (fluorescence arbitrary ratio), mitoxantrone fluorescence (BCRP [3]; compound 20 μM vs PBS)	% FTC (inhibition of mitoxantrone efflux normalized to 10 μM FTC) (BCRP [3]; compound 20 μM)	FAR (fluorescence arbitrary ratio), intracellular calcein fluorescence (P-gp)	other results
COC(=O)C1(O)NC(=O)C(c2ccc(O)cc2)=C1c1ccc(O)cc1 (stereo not drawn) [Compound 1, ianthellidone A]	> 30 µM	> 30 µM	0.97 fold	<1.00 % FTC	0.63 fold	–
CCOC1(C(=O)OC)NC(=O)C(c2ccc(O)cc2)=C1c1ccc(O)cc1 (stereo not drawn) [Compound 2, ianthellidone B]	> 30 µM	> 30 µM	1.07 fold	3.13 % FTC	0.52 fold	–
COCN1C(=O)C(c2ccc(O)cc2)=C(c2ccc(O)cc2)C1(O)C(=O)OC (stereo not drawn) [Compound 3, ianthellidone C]	> 30 µM	> 30 µM	1.12 fold	5.60 % FTC	0.61 fold	–
CCOCN1C(=O)C(c2ccc(O)cc2)=C(c2ccc(O)cc2)C1(O)C(=O)OC (stereo not drawn) [Compound 4, ianthellidone D]	> 30 µM	> 30 µM	1.15 fold	6.66 % FTC	0.60 fold	–
CCOC(=O)CN1C(=O)C(c2ccc(O)cc2)=C(c2ccc(O)cc2)C1(O)C(=O)OC (stereo not drawn) [Compound 5, ianthellidone E]	> 30 µM	> 30 µM	1.14 fold	6.20 % FTC	0.59 fold	–
COC(=O)C1(O)C(c2ccc(O)cc2)=C(c2ccc(O)cc2)C(=O)N1CC(=O)c1ccc(OC)cc1 (stereo not drawn) [Compound 6, ianthellidone F]	> 30 µM	> 30 µM	1.21 fold	9.79 % FTC	0.61 fold	–
COC(=O)C1(O)OC(=O)C(c2ccc(O)cc2)=C1c1ccc(O)cc1 (stereo not drawn) [Compound 7, ianthellidone G]	> 30 µM	> 30 µM	1.09 fold	4.06 % FTC	0.67 fold	–
COC(=O)C1(OC)OC(=O)C(c2ccc(O)cc2)=C1c1ccc(O)cc1 (stereo not drawn) [Compound 8, ianthellidone H]	> 30 µM	> 30 µM	1.13 fold	6.06 % FTC	0.60 fold	–
COC(=O)c1c(-c2ccc(O)cc2)c(-c2ccc(O)cc2)cn1CC(=O)c1ccc(O)cc1 [Compound 9, lamellarin O1]	> 30 µM	> 30 µM	1.23 fold	10.6 % FTC	0.61 fold	–
COC(=O)c1c(-c2ccc(O)cc2)c(-c2ccc(O)cc2)cn1CC(O)c1ccc(O)cc1 (stereo not drawn) [Compound 10, lamellarin O2]	> 30 µM	> 30 µM	1.11 fold	5.13 % FTC	0.60 fold	–
COC(=O)c1c(-c2ccc(O)cc2)c(-c2ccc(O)cc2)cn1CC(=O)c1ccc(OC)cc1 [Compound 11, lamellarin O]	22 µM	22.3 µM	–	–	–	effect on intracellular [3H]-mitoxantrone levels, accumulation phase (NCI-H460 cells): neither 11 (10 or 30 μM) nor FTC (5.0 μM) significantly changed intracellular [^3H]-mitoxantrone levels; effect on intracellular [3H]-mitoxantrone levels, efflux phase (NCI-H460 cells): Neither 11 nor FTC had a significant effect; DMF (dose-modifying factor), increase in sensitivity towards doxorubicin (SW620 Ad300 cells; lamellarin O (11) 5.0 μM): 1.5 fold; DMF (dose-modifying factor), increase in sensitivity towards doxorubicin (SW620 Ad300 cells; lamellarin O (11) 10 μM): 3.1 fold; DMF (dose-modifying factor), increase in sensitivity towards doxorubicin (SW620 Ad300 cells; lamellarin O (11) […] μM): 4.8 fold
COC(=O)c1[nH]cc(-c2ccc(O)cc2)c1-c1ccc(O)cc1 [Compound 12, lamellarin Q]	> 30 µM	> 30 µM	1.41 fold	18.6 % FTC	0.54 fold	–
COC(=O)c1cccn1CC(=O)c1ccc(OC)cc1 [Compound 13]	–	–	1.00 fold	< 1.00 % FTC	–	–
COC(=O)c1cc(Br)cn1CC(=O)c1ccc(OC)cc1 [Compound 14]	–	–	1.03 fold	< 1.00 % FTC	–	–
COC(=O)c1ccc(Br)n1CC(=O)c1ccc(OC)cc1 [Compound 15]	–	–	0.97 fold	< 1.00 % FTC	–	–
COC(=O)c1c(Br)c(Br)c(Br)n1CC(=O)c1ccc(OC)cc1 [Compound 16]	–	–	1.20 fold	5.45 % FTC	–	–
COC(=O)c1c(-c2ccc(OC)cc2)c(-c2ccc(OC)cc2)cn1CC(=O)c1ccc(OC)cc1 [Compound 19, 4′,4″-dimethyl-lamellarin O]	–	–	–	–	–	IC50 (BCRP [3]): > 100 µM
COc1ccc2c3c([nH]c2c1)[C@H](C=C(C)C)N1C(=O)[C@@H]2CCCN2C(=O)[C@@H]1C3 [FTC, Fumitremorgin C, reference compound]	–	–	–	–	–	effect on intracellular [3H]-mitoxantrone levels, accumulation phase (NCI-H460 cells): neither 11 (10 or 30 μM) nor FTC (5.0 μM) significantly changed intracellular [^3H]-mitoxantrone levels; effect on intracellular [3H]-mitoxantrone levels, efflux phase (NCI-H460 cells): Neither 11 nor FTC had a significant effect; FAR (fluorescence arbitrary ratio), mitoxantrone fluorescence (BCRP [3]; FTC 10 μM (positive control) vs PBS): 3.17 fold; % FTC (inhibition of mitoxantrone efflux normalized to 10 μM FTC) (BCRP [3]; FTC 10 μM (positive control, set as 100%)): 100 % FTC; increase in [3H]-mitoxantrone accumulation (BCRP [4]): 2.2 fold
COc1cccc2c1C(=O)c1c(O)c3c(c(O)c1C2=O)C[C@@](O)(C(=O)CO)C[C@@H]3O[C@H]1C[C@H](N)[C@H](O)[C@H](C)O1 [doxorubicin, reference compound]	–	–	–	–	–	IC50 (SW620 Ad300 cells; Homo sapiens, doxorubicin alone): 4.44 ± 0.21 µM
COc1ccc(CCN(C)CCCC(C#N)(c2ccc(OC)c(OC)c2)C(C)C)cc1OC (stereo not drawn) [verapamil, reference compound]	–	–	–	–	–	DMF (dose-modifying factor), increase in sensitivity towards doxorubicin (SW620 Ad300 cells; verapamil […]): 8.8 fold
